Test results as given in US20250243180A1, “TARGETED PROTEIN DEGRADATION” (Monte Rosa Therapeutics AG, priority 2023, published 2025).
Like-named read-outs stand apart in the source and are kept apart here.

How the values were obtained:
[1] = target: CRBN-DDB1 (Homo sapiens (Human), UniProt Q96SW2); assay: Compound binding to CRBN by HTRF assay
Experimental: Compound activity was monitored in a Homogenous Time-Resolved Fluorescence (HTRF) assay using 1-[5-({2-[2-(2-{[2-(2,6-dioxopiperidin-3-yl)-1,3-dioxo-2,3-dihydro-1H-isoindol-4-yl]oxy}acetamido)ethoxy]ethyl}carbamoyl)pentyl]-3,3-dimethyl-2-[(1E,3E)-5-[(2E)-1,3,3-trimethyl-5-sulfo-2,3-dihydro-1H-indol-2-ylidene]penta-1,3-dien-1-yl]-3H-indol-1-ium-5-sulfonate as a fluorescent probe. Biochemical assays were conducted in Greiner white 384 well HiBase plates (Cat. No 784075-25) in 20 μL total volume. A one pot detection solution of CRBN-DDB1 (2.5 nM), Anti-His Terbium Cryptate Gold (1×, PerkinElmer Cat. #: 61HI2TLB), and Cy5-Thalidomide (100 nM, Tenova Cat.: T52461) was prepared in 20 mM HEPES, 20 mM NaCl, 0.2 mM TCEP, 0.2 mM EDTA, and 0.005% Tween20 was dispensed to each assay plate. Compounds were stored in dry, ambient temperatures at 10 mM. An 11-point, 1:3 dilution series was prepared from 10 mM stock concentrations in Echo-compatible LDV plates. 10 nL of each compound dilution series was dispensed into assays wells using an Echo 650 (Labcyte Inc. USA). 20 nL of 10 mM Lenalidomide was transferred into the active-control wells for the assay and 20 nL of DMSO was transferred into the neutral-control wells. The assay was then allowed to incubate for 30 min at ambient temperature after transferring compound. Plate measurements were taken on a Pherastar FSX (BMG Labtech, Germany) using the HTRF Red filter (Ex. 337 nm, em1: 620 nm, em2: 665 nm) (Flashes: 50, Integration time: 60-400 us, Z-height: 10 mm, Ratio-multiplier: 10,000). The HTRF signal was then subsequently normalized to the neutral and active controls. Analysis and EC50 values were derived using KNIME analytics (KNIME Zurich) transformation and fitting within Collaborative Drug Discovery (Collaborative Drug Discovery USA). Ki was derived from the geometric mean of the EC50 values using the Cheng-Prustoff transformation.

[2] = target: NEK7 (Homo sapiens (Human), UniProt Q8TDX7+Q96SW2); assay: NEK7 NanoBiT degradation assay in Cal51 NEK7 NanoBiT cell line; assay type: cell-based; conditions: Cal51 NEK7 NanoBiT cells, 24 hours; for Dmax: CAL-51
Experimental: Cal51 NEK7 NanoBiT cell line was generated via CRISPR Knock-In of the HiBiT tag in NEK7 gene and stable infection with a lentivirus carrying LgBiT protein. The cell line was generated in house. For the experiment, cells were plated in 384-well white flat bottom plates (Corning, 3570BC) at 2500 cells per well using Multiflo (BioTek/Agilent) and in 25 μl volume in DMEM experimental medium: DMEM (DMEM, high glucose, HEPES, no phenol red (ThermoFisher Scientific, 21063029) supplemented with 10% FBS (Corning, 35-075-CV), 1% Penicillin/Streptomycin ((ThermoFisher Scientific, 15140-122), and 1% Endurazine (Nano-Glo Endurazine Live Cell Substrate (Promega, N2571)). Cells were incubated for 16 hours at 37° C., 5% CO2 before compound addition. For dose response determination, 2.5 nL of a compound at different concentrations (stock compound concentration range: 10 mM to 0.5 μM, final concentration range inside cell plate: 1 μM to 0.05 nM) were dispensed into the plate using an Echo® 650 liquid handling device (Backman Coulter/Labcyte). Cells were incubated at 37° C., 5% CO2 for 24 hours and then signal was read on a Pherastar FSX using “LUM plus” optic module with 4095 gain and measurement interval time 0.2 seconds.
Analysis was performed in Genedata Screener (Genedata, Basel, CH). Luminescence response (R) was calculated by the formula: response=100*(S−N)/(P−N) where S is the signal of the well, N and P the mean negative and positive control values respectively of the same plate. The luminescence response was then fitted in Genedata using a 4-parameter antagonist logistic fit (hill slope unconstrained, EC50>0, top/bottom unconstrained).

[3] = NEK7 degradation, read-out: NanoBiT Dmax
[4] = NEK7 degradation, read-out: NanoBiT DC50

Chain of NEK7 (Q8TDX7 whole entry): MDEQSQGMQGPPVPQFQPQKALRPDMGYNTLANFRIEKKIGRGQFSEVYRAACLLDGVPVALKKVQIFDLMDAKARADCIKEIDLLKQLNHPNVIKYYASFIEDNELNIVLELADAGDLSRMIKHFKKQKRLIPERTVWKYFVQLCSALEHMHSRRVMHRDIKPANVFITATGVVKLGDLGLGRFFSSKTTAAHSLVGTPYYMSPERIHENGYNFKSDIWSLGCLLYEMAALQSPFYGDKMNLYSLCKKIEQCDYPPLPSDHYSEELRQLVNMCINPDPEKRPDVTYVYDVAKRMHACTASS
Chain of NEK7 (Q96SW2 whole entry): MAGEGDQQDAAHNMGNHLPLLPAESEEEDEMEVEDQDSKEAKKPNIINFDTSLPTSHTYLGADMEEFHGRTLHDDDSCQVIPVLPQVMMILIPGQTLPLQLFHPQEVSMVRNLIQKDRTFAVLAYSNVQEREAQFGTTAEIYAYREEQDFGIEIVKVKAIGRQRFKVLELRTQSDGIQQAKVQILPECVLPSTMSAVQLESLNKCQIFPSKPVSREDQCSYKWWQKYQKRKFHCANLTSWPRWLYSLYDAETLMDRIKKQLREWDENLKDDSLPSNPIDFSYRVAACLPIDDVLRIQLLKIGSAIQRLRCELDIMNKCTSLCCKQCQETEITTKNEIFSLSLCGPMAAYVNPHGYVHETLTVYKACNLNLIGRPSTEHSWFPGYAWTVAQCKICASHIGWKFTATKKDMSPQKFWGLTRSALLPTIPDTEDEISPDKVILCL
Chain of NEK7 (Q16531 2-1140 partner): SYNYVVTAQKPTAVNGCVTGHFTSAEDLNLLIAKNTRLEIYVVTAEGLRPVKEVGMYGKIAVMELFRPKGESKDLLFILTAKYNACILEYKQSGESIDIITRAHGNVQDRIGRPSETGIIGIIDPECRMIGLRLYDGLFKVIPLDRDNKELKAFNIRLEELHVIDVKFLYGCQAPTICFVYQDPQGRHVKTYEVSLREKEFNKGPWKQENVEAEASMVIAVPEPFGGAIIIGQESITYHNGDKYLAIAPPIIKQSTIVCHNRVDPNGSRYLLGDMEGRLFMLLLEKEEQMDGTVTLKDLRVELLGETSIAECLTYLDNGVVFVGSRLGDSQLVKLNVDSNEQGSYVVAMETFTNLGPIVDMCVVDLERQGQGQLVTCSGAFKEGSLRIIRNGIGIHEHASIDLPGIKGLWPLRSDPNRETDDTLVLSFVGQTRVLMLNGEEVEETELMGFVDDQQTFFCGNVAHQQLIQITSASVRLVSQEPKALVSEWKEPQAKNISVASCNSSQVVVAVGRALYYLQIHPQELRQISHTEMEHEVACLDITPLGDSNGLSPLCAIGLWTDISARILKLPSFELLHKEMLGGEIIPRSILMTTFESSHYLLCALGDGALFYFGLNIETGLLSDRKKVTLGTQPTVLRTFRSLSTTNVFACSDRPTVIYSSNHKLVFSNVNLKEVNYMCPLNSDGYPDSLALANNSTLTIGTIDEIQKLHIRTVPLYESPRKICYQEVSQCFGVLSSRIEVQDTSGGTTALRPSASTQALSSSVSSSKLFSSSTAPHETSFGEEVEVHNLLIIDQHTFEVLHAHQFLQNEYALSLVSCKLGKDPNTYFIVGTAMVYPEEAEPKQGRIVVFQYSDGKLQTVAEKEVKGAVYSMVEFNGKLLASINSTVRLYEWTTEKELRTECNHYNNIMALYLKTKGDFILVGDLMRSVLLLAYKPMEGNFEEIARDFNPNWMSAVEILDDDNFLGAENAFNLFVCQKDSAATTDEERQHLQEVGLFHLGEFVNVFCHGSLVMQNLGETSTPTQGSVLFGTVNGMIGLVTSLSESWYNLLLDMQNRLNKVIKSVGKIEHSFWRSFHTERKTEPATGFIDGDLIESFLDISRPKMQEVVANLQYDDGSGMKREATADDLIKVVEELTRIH
Chain of CRBN-DDB1 (Q96SW2 whole entry): as the sequence (Q96SW2 whole entry) above
Chain of CRBN-DDB1 (Q16531 whole entry partner): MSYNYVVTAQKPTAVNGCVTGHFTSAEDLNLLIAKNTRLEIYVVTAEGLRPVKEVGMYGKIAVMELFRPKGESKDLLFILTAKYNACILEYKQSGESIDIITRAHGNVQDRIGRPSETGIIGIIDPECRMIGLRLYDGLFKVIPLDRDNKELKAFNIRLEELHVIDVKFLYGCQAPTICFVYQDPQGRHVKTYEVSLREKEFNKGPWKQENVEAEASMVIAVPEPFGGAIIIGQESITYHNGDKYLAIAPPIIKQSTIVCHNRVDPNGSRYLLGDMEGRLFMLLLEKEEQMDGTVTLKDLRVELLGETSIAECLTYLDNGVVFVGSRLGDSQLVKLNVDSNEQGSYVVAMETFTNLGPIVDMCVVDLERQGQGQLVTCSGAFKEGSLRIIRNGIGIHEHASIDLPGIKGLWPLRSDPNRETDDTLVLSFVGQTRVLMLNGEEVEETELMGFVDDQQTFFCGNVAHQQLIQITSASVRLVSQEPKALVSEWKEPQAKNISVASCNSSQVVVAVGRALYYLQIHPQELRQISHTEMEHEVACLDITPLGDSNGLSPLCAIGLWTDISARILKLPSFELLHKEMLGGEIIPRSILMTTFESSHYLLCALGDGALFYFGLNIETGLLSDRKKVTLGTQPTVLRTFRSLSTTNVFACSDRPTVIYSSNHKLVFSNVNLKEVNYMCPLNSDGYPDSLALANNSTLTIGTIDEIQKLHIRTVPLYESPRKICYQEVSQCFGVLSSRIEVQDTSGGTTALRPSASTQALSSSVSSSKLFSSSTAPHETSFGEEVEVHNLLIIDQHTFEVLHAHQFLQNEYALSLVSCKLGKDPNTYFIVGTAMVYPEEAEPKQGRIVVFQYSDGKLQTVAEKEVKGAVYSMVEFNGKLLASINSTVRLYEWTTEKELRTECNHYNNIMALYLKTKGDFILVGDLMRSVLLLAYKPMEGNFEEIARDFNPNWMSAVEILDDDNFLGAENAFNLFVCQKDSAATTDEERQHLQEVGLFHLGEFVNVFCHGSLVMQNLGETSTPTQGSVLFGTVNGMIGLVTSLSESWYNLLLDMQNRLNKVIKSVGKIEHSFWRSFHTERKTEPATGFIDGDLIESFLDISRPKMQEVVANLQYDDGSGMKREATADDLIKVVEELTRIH

| Structure (SMILES) | EC50 [1] | EC50 ([1]; HTRF class, Cereblon binding) | Dmax ([2]; read-out: NEK7 NanoBiT Dmax) | Dmax [2, 3] | DC50 ([2]; read-out: NEK7 NanoBiT DC50) | DC50 [2, 4] |
| --- | --- | --- | --- | --- | --- | --- |
| CC(F)(F)c1cnc(C(C)(C)C(=O)NCc2cc(F)c(C3CCC(=O)NC3=O)c(Cl)c2)cn1 (centres unmarked) [Compound 255] | 0.09 µM | ≤ 0.1 µM | 54% | 50 to 75% | 0.464 µM | 0.1 to 1 µM |
| CC(C)(C(=O)NCc1cc(Cl)c(C2CCC(=O)NC2=O)c(Cl)c1)C1CCCO1 (centres unmarked) [Compound 265, N-(3,5-dichloro-4-(2,6-dioxopiperidin-3-yl)benzyl)-2-methyl-2-(tetrahydrofuran-2-yl)propanamide] | 0.09 µM | ≤ 0.1 µM | 56% | 50 to 75% | 0.474 µM | 0.1 to 1 µM |
| Cc1cc(CNC(=O)C(C)(C)c2ccncc2)cc(Cl)c1C1CCC(=O)NC1=O (centres unmarked) [Compound 107, N-(3-chloro-4-(2,6-dioxopiperidin-3-yl)-5-methylbenzyl)-2-methyl-2-(pyridin-4-yl)propanamide] | 0.44 µM | 0.1 to 1 µM | 82% | > 75% | 0.028 µM | ≤ 0.1 µM |
| O=C1CCC(c2c(Cl)cc(CNC(=O)C3(c4ccccc4)COC3)cc2Cl)C(=O)N1 (centres unmarked) [Compound 129] | 0.09 µM | ≤ 0.1 µM | 90% | > 75% | 0.022 µM | ≤ 0.1 µM |
| CC(C)(C(=O)NCc1cc(Cl)c(C2CCC(=O)NC2=O)c(Cl)c1)c1cnc(C2CC2)cn1 (centres unmarked) [Compound 232] | 0.15 µM | 0.1 to 1 µM | 93% | > 75% | 0.003 µM | ≤ 0.1 µM |
| CCOc1ccc(C(C)(C)C(=O)NCc2cc(F)c(C3CCC(=O)NC3=O)c(Cl)c2)nn1 (centres unmarked) [Compound 258] | 0.07 µM | ≤ 0.1 µM | 91% | > 75% | 0.004 µM | ≤ 0.1 µM |
| COCc1cnc(C(C)(C)C(=O)NCc2cc(Cl)c(C3CCC(=O)NC3=O)c(Cl)c2)cn1 (centres unmarked) [Compound 222, N-(3,5-dichloro-4-(2,6-dioxopiperidin-3-yl)benzyl)-2-(5-(methoxymethyl)pyrazin-2-yl)-2-methylpropanamide] | 0.16 µM | 0.1 to 1 µM | 73% | 50 to 75% | 0.054 µM | ≤ 0.1 µM |
| CC(C)(C(=O)NCc1ccc(C2CCC(=O)NC2=O)c(Cl)c1)c1ccc(F)cc1 (centres unmarked) [Compound 30] | 0.35 µM | 0.1 to 1 µM | 92% | > 75% | 0.012 µM | ≤ 0.1 µM |
| O=C1CCC(c2c(Cl)cc(CNC(=O)C3(c4ccncc4)CCC3)cc2Cl)C(=O)N1 (centres unmarked) [Compound 144] | 0.05 µM | ≤ 0.1 µM | 78% | > 75% | 0.006 µM | ≤ 0.1 µM |
| Cc1noc(C)c1C(C)(C)C(=O)NCc1cc(Cl)c(C2CCC(=O)NC2=O)c(Cl)c1 (centres unmarked) [Compound 112] | – | – | 40% | ≤ 50% | 1 µM | > 1 µM |
| CC(C)(C(=O)NCc1cc(Cl)c(C2CCC(=O)NC2=O)c(Cl)c1)c1cc[nH]n1 (centres unmarked) [Compound 115] | – | – | 76% | > 75% | 0.043 µM | ≤ 0.1 µM |
| CC(C)(C(=O)NCc1cc(Cl)c(C2CCC(=O)NC2=O)c(Cl)c1)c1ccc(CC#N)nn1 (centres unmarked) [Compound 214] | – | – | 49% | ≤ 50% | 0.635 µM | 0.1 to 1 µM |
| CC(C)(C(=O)NCc1ccc(C2CCC(=O)NC2=O)c(Cl)c1)c1ccc(Cl)cc1 (centres unmarked) [Compound 101] | – | – | 95% | > 75% | 0.005 µM | ≤ 0.1 µM |
| CC1(C(=O)NCc2ccc(C3CCC(=O)NC3=O)c(Cl)c2)CCc2ccccc2C1 (centres unmarked) [Compound 102] | – | – | 86% | > 75% | 0.051 µM | ≤ 0.1 µM |
| CC(C)(C(=O)NCc1ccc(C2CCC(=O)NC2=O)c(Cl)c1)c1ccc(Cl)nc1 (centres unmarked) [Compound 105] | – | – | 84% | > 75% | 0.058 µM | ≤ 0.1 µM |
| Cn1ccc(C(C)(C)C(=O)NCc2cc(Cl)c(C3CCC(=O)NC3=O)c(Cl)c2)n1 (centres unmarked) [Compound 117] | – | – | 74% | 50 to 75% | 0.051 µM | ≤ 0.1 µM |
| CC(C)(C(=O)NCc1cc(Cl)c(C2CCC(=O)NC2=O)c(Cl)c1)c1cncs1 (centres unmarked) [Compound 114] | – | – | 69% | 50 to 75% | 0.052 µM | ≤ 0.1 µM |
| CC(C)(C(=O)NCc1ccc(C2CCC(=O)NC2=O)c(Cl)c1)c1cccc(C(F)(F)F)n1 (centres unmarked) [Compound 104] | – | – | 80% | > 75% | 0.122 µM | 0.1 to 1 µM |
| CC(C)(C(=O)NCc1ccc(C2CCC(=O)NC2=O)c(Cl)c1)c1ccc(OC(F)(F)F)cc1 (centres unmarked) [Compound 100] | – | – | 91% | > 75% | 0.045 µM | ≤ 0.1 µM |
| CC(C)(C(=O)NCc1cc(Cl)c(C2CCC(=O)NC2=O)c(Cl)c1)c1cscn1 (centres unmarked) [Compound 113] | – | – | 61% | 50 to 75% | 0.151 µM | 0.1 to 1 µM |
| CC(C)(C(=O)NCc1cc(Cl)c(C2CCC(=O)NC2=O)c(Cl)c1)c1c[nH]cn1 (centres unmarked) [Compound 118] | – | – | 48% | ≤ 50% | 0.76 µM | 0.1 to 1 µM |
| Cn1cnnc1C(C)(C)C(=O)NCc1cc(Cl)c(C2CCC(=O)NC2=O)c(Cl)c1 (centres unmarked) [Compound 119] | – | – | 45% | ≤ 50% | 1 µM | > 1 µM |
| Cc1cc(C(C)(C)C(=O)NCc2cc(Cl)c(C3CCC(=O)NC3=O)c(Cl)c2)nn1C (centres unmarked) [Compound 116] | – | – | 80% | > 75% | 0.02 µM | ≤ 0.1 µM |
